Measured values: patent US7732618B2, “Benzimidazole acetic acids exhibiting CRTH2 receptor antagonism and uses thereof” (Wyeth, priority 2004, dated 2010)

Each compound was assayed against T1, human CRTH2 (Homo sapiens, UniProt Q9Y5Y4) (assay: CRTH-2 binding assay (scintillation proximity assay, inhibition of 3H-PGD2 binding)). Settings: membranes from 293EBNA-hCRTH2 cells, 3H-PGD2 3.6 nM; Ki calculated from IC50.
T1 sequence (Q9Y5Y4 1-395): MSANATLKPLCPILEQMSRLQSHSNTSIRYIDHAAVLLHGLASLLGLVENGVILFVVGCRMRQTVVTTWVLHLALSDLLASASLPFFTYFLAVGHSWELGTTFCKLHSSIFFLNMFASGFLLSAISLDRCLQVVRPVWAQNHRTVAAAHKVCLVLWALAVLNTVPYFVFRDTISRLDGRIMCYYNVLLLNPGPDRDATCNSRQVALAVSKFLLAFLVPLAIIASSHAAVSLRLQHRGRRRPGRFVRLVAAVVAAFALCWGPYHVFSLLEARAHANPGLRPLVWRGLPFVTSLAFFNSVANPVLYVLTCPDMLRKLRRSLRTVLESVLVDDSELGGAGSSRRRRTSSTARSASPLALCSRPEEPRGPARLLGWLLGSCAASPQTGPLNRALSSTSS
Parameters: expressed in transfected cells; host or cells: 293EBNA-hCRTH2 cells (membrane preparation)
Procedure: A CRTH2 binding assay was developed to measure the ability of compounds to inhibit the binding of PGD2 to human CRTH2 using a scintillation proximity assay.
Membranes containing hCRTH2 receptors were prepared from 293EBNA-hCRTH2 cells (a 293EBNA cell line stably expressing human CRTH2). The cells were grown to confluency, harvested and washed with PBS. The cells were resuspended in 10 mM Hepes pH 7.4, 1 mM EDTA and protease inhibitors and incubated for 30 min on ice. The cells were homogenized and centrifuged for 10 min at 1000×g. The supernate was centrifuged for 30 min at 100,000×g and the membrane pellet was then resuspended in 10 mM Hepes pH 7.4 and 1 mM EDTA. The protein concentration of the membrane preparation was determined by Bradford assay (Bio-Rad).
The ability of compounds to inhibit the interaction of PGD2 to human CRTH2 was determined at seven compound concentrations. Compounds were serially diluted in DMSO then diluted into CRTH2 buffer (10 mM Hepes pH 7.4, 1 mM EDTA, 10 mM MnCl2) to six times the final desired concentration. 20 μL of the diluted compounds were transferred into non-surface binding 96-well plates (Corning). Each concentration was done in triplicate. In addition to test compounds, each plate contained 12 control wells. Six of these wells contained 20 μL of CRTH2 buffer. These wells were used to measure total binding. Six wells contained 20 μL of CRTH2 buffer plus 1.5 mM indomethacin. These wells were used to measure non-specific binding. Next, 293EBNA-hCRTH2 membranes were resuspended in CRTH2 buffer with glycerol (10 mM Hepes pH 7.4, 1 mM EDTA, 10 mM MnCl2, 25% glycerol) so that the final concentration was approximately 20 μg/100 μL. Polylysine-coated yttrium silicate SPA beads (Amersham) were added to the membrane mix to a concentration of 0.4 mg/100 μL and finally ^3H-PGD2 was added to the membrane/SPA bead mix to 3.6 nM. 100 μL of the membrane/SPA bead/^3H-PGD2 mix was added to each well of the non-surface binding plates containing the diluted compound or controls. The plates were incubated for 2 hours at room temperature with shaking and then the plates were counted on a Microbeta scintillation counter (Perkin Elmer) for 1 min per well.
IC50 values were determined from the experimental results by nonlinear regression using Prism 4.0 software. The IC50 values were then used in conjunction with the Kd for hCRTH2 and the ^3H-PGD2 concentration used in the experiment to calculate the Ki for each compound.

SMILES	Ki
CCCc1nc2cc(NS(=O)(=O)c3ccc(F)cc3)ccc2n1CC(=O)O [Example 1, [5-(4-Fluoro-benzenesulfonylamino)-2-propyl-benzoimidazol-1-yl]-acetic acid]	< 1000 nM
CCCC(C)c1nc2cc(NS(=O)(=O)c3ccc(F)cc3)ccc2n1CC(=O)O (stereo not shown) [Example 2, [5-(4-Fluoro-benzenesulfonylamino)-2-(1-methyl-butyl)-benzoimidazol-1-yl]-acetic acid]	< 1000 nM
CCc1nc2cc(NS(=O)(=O)c3ccc(F)cc3)ccc2n1CC(=O)O [Example 3, [2-Ethyl-5-(4-fluoro-benzenesulfonylamino)-benzoimidazol-1-yl]-acetic acid]	< 1000 nM
CC(C)=CCCC(C)c1nc2cc(NS(=O)(=O)c3ccc(F)cc3)ccc2n1CC(=O)O (stereo not shown) [Example 4, [2-(1,5-Dimethyl-hex-4-enyl)-5-(4-fluoro-benzenesulfonylamino)-benzoimidazol-1-yl]-acetic acid]	< 10000 nM
CSCCc1nc2cc(NS(=O)(=O)c3ccc(F)cc3)ccc2n1CC(=O)O [Example 5, [5-(4-Fluoro-benzenesulfonylamino)-2-(2-methylsulfanyl-ethyl)-benzoimidazol-1-yl]-acetic acid]	< 10000 nM
CC/C=C/c1nc2cc(NS(=O)(=O)c3ccc(F)cc3)ccc2n1CC(=O)O [Example 6, [2-But-1-enyl-5-(4-fluoro-benzenesulfonylamino)-benzoimidazol-1-yl]-acetic acid]	< 10000 nM
CC(C)Cc1nc2cc(NS(=O)(=O)c3ccc(F)cc3)ccc2n1CC(=O)O [Example 7, [5-(4-Fluoro-benzenesulfonylamino)-2-isobutyl-benzoimidazol-1-yl]-acetic acid]	< 10000 nM
CC(Cc1nc2cc(NS(=O)(=O)c3ccc(F)cc3)ccc2n1CC(=O)O)CC(C)(C)C (stereo not shown) [Example 8, [5-(4-Fluoro-benzenesulfonylamino)-2-(2,4,4-trimethyl-pentyl)-benzoimidazol-1-yl]-acetic acid]	> 10000 nM
CCCCCc1nc2cc(NS(=O)(=O)c3ccc(F)cc3)ccc2n1CC(=O)O [Example 9, [5-(4-Fluoro-benzenesulfonylamino)-2-pentyl-benzoimidazol-1-yl]-acetic acid]	> 10000 nM
CCCCC(CC)c1nc2cc(NS(=O)(=O)c3ccc(F)cc3)ccc2n1CC(=O)O (stereo not shown) [Example 10, [2-(1-Ethyl-pentyl)-5-(4-fluoro-benzenesulfonylamino)-benzoimidazol-1-yl]-acetic acid]	> 10000 nM
C=CCOC(=O)NCCc1nc2cc(NS(=O)(=O)c3ccc(F)cc3)ccc2n1CC(=O)O [Example 11, [2-(2-Allyloxycarbonylamino-ethyl)-5-(4-fluoro-benzenesulfonylamino)-benzoimidazol-1-yl]-acetic acid]	< 10000 nM
CCCCc1nc2cc(NS(=O)(=O)c3ccc(F)cc3)ccc2n1CC(=O)O [Example 12, [2-Butyl-5-(4-fluoro-benzenesulfonylamino)-benzoimidazol-1-yl]-acetic acid]	< 1000 nM
CC(C)c1nc2cc(NS(=O)(=O)c3ccc(F)cc3)ccc2n1CC(=O)O [Example 13, [5-(4-Fluoro-benzenesulfonylamino)-2-isopropyl-benzoimidazol-1-yl]-acetic acid]	< 1000 nM
CC(C)c1nc2cc(N(Cc3ccccc3)S(=O)(=O)c3ccc(F)cc3)ccc2n1CC(=O)O [Example 16, {5-[Benzyl-(4-fluoro-benzenesulfonyl)-amino]-2-isopropyl-benzoimidazol-1-yl}-acetic acid]	< 1000 nM
CCCCc1nc2cc(N(C)S(=O)(=O)c3ccc(F)cc3)ccc2n1CC(=O)O [Example 17, {2-Butyl-5-[(4-fluoro-benzenesulfonyl)-methyl-amino]-benzoimidazol-1-yl}-acetic acid]	< 1000 nM
CCCc1nc2cc(N(C(C)C)S(=O)(=O)c3ccc(F)cc3)ccc2n1CC(=O)O [Example 21, {5-[(4-Fluoro-benzenesulfonyl)-isopropyl-amino]-2-propyl-benzoimidazol-1-yl}-acetic acid]	< 100 nM
CCCc1nc2cc(NC(=O)OC(C)(C)C)ccc2n1CC(=O)O [Example 25, (5-tert-Butoxycarbonylamino-2-propyl-benzoimidazol-1-yl)-acetic acid]	< 10000 nM
CCCc1nc2cc(N3C(=O)c4ccccc4S3(=O)=O)ccc2n1CC(=O)O [Example 26, [2-Propyl-5-(1,1,3-trioxo-1,3-dihydro-1λ^6-benzo[d]isothiazol-2-yl)-benzoimidazol-1-yl]-acetic acid]	< 10000 nM

Other lines, results leading:

Ki	SMILES
< 100 nM	CCCc1nc2cc(N(Cc3ccccc3)S(=O)(=O)c3ccc(F)cc3)ccc2n1CC(=O)O [Example 14, {5-[Benzyl-(4-fluoro-benzenesulfonyl)-amino]-2-propyl-benzoimidazol-1-yl}-acetic acid]
< 1000 nM	CCCCc1nc2cc(N(Cc3ccccc3)S(=O)(=O)c3ccc(F)cc3)ccc2n1CC(=O)O [Example 15, {5-[Benzyl-(4-fluoro-benzenesulfonyl)-amino]-2-butyl-benzoimidazol-1-yl}-acetic acid]
< 1000 nM	CCCc1nc2cc(N(CC(=O)OCC)S(=O)(=O)c3ccc(F)cc3)ccc2n1CC(=O)O [Example 18, {5-[Ethoxycarbonylmethyl-(4-fluoro-benzenesulfonyl)-amino]-2-propyl-benzoimidazol-1-yl}-acetic acid]
< 100 nM	CCCc1nc2cc(N(Cc3ccc(F)cc3)S(=O)(=O)c3ccc(F)cc3)ccc2n1CC(=O)O [Example 19, {5-[(4-Fluoro-benzenesulfonyl)-(4-fluoro-benzyl)-amino]-2-propyl-benzoimidazol-1-yl}-acetic acid]
< 100 nM	CCCc1nc2cc(N(CCC(C)C)S(=O)(=O)c3ccc(F)cc3)ccc2n1CC(=O)O [Example 20, {5-[(4-Fluoro-benzenesulfonyl)-(3-methyl-butyl)-amino]-2-propyl-benzoimidazol-1-yl}-acetic acid]
< 1000 nM	CCCc1nc2cc(N(Cc3csc(C)n3)S(=O)(=O)c3ccc(F)cc3)ccc2n1CC(=O)O [Example 22, {5-[(4-Fluoro-benzenesulfonyl)-(2-methyl-thiazol-4-ylmethyl)-amino]-2-propyl-benzoimidazol-1-yl}-acetic acid]
< 100 nM	CCCc1nc2cc(N(CC3COc4ccccc4O3)S(=O)(=O)c3ccc(F)cc3)ccc2n1CC(=O)O (stereo not shown) [Example 23, {5-[(2,3 -Dihydro-benzo[1,4]dioxin-2-ylmethyl)-(4-fluoro-benzenesulfonyl)-amino]-2-propyl-benzoimidazol-1-yl}-acetic acid]
< 1000 nM	CCCc1nc2cc(N(Cc3c(C)noc3C)S(=O)(=O)c3ccc(F)cc3)ccc2n1CC(=O)O [Example 24, {5-[(3,5-Dimethyl-isoxazol-4-ylmethyl)-(4-fluoro-benzenesulfonyl)-amino]-2-propyl-benzoimidazol-1-yl}-acetic acid]
< 1000 nM	CCCc1nc2cc(N(Cc3ccc(F)cc3)S(=O)(=O)c3cccc(F)c3)ccc2n1CC(=O)O [Example 27, {5-[(3-Fluoro-benzenesulfonyl)-(4-fluoro-benzyl)-amino]-2-propyl-benzoimidazol-1-yl}-acetic acid]
< 1000 nM	CCCc1nc2cc(N(Cc3ccc(F)cc3)S(=O)(=O)c3ccccc3F)ccc2n1CC(=O)O [Example 28, {5-[(2-Fluoro-benzenesulfonyl)-(4-fluoro-benzyl)-amino]-2-propyl-benzoimidazol-1-yl}-acetic acid]
